The values below come from US20100119599A1 (ARCHER PHARMACEUTICALS, INC., priority 2006, published 2010).

One assay has as its system Aβ1-40. In words: Measurement of Aβ1-40 in culture medium of 7W WT APP751 CHO cells by ELISA. The assay is classed as cell-based, Chinese hamster. Conditions: Cricetulus griseus; Table 1; 5 μM test compound; CHO cells stably transfected with human APP751; culture medium, ELISA; control DMSO; 0 = no detectable amount. (ELISA stands for enzyme-linked immunosorbent assay.)
For the next assay, the system named is Aβ1-42. Briefly: Measurement of Aβ1-42 in culture medium of 7W WT APP751 CHO cells by ELISA. Conditions: Cricetulus griseus; Table 1; 5 μM test compound; CHO cells stably transfected with human APP751; culture medium, ELISA; control DMSO; 0 = no detectable amount; read-out: Aβ1-42 (% of control). The format is cell-based, Chinese hamster.
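Also: 5 µM test compound but RI-coded compounds at 10 µM for 24 hours.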

For `CC1=C(C(=O)OC2CCCC2)C(c2cccs2)C2=C(CCCC2=O)N1` (stereo not drawn) [ST017171, cyclopentyl 2-methyl-5-oxo-4-(2-thienyl)-1,4,6,7,8-pentahydroquinoline-3-carboxylate], the activity at 5 µM in the assay with Aβ1-40 was 62.5%; in the assay with Aβ1-42, 63.4%.

As to `CCCCOC(=O)C1=C(C)NC2=C(C(=O)CCC2)C1c1ccc(Cl)cc1` (stereo not drawn) [ST017175, butyl 4-(4-chlorophenyl)-2-methyl-5-oxo-1,4,6,7,8-pentahydroquinoline-3-carboxylate], the values for the activity at 5 µM with Aβ1-40 and in the assay with Aβ1-42 were 59.8% and 34.5%, respectively.

As to `COc1ccccc1C1C(C(=O)OC2CCCC2)=C(C)NC2=C1C(=O)CC(c1ccccc1)C2` (stereo not drawn) [ST017176, cyclopentyl 4-(2-methoxyphenyl)-2-methyl-5-oxo-7-phenyl-1,4,6,7,8-pentahydroquinoline-3-carboxylate], the activity at 5 µM came out at 34.2% in the assay with Aβ1-40 and 49.8% in the assay on Aβ1-42.

`CCCOC(=O)C1=C(C)NC2=C(C(=O)CC(c3ccc(Cl)cc3)C2)C1c1ccc(Cl)c(Cl)c1` (stereo not drawn) [ST017183, propyl 4-(3,4-dichlorophenyl)-7-(4-chlorophenyl)-2-methyl-5-oxo-1,4,6,7,8-pentahydroquinoline-3-carboxylate]: the activity at 5 µM was determined as 50.1% in the assay with Aβ1-40 and 67.9% in the assay with Aβ1-42.

Turning to `CCSCCOC(=O)C1=C(C)NC2=C(C(=O)CCC2)C1c1ccccc1Br` (stereo not drawn) [ST017199, 2-ethylthioethyl 4-(2-bromophenyl)-2-methyl-5-oxo-1,4,6,7,8-pentahydroquinoline-3-carboxylate], the results for the activity at 5 µM in the assay on Aβ1-40 and in the assay on Aβ1-42 were 47.9% and 100%, respectively.

With `CCSCCOC(=O)C1=C(C)NC2=C(C(=O)CC(c3ccccc3)C2)C1c1ccc(Br)cc1` (stereo not drawn) [ST017201, 2-ethylthioethyl 4-(4-bromophenyl)-2-methyl-5-oxo-7-phenyl-1,4,6,7,8-pentahydroquinoline-3-carboxylate], the figures for the activity at 5 µM with Aβ1-40 and in the assay on Aβ1-42 were 57.5% and 85.2%, respectively.

`CC1=C(C(=O)OC(C)C)C(c2ccccc2)C2=C(CC(c3ccccc3)CC2=O)N1` (stereo not drawn) [ST017212, methylethyl 2-methyl-5-oxo-4,7-diphenyl-1,4,6,7,8-pentahydroquinoline-3-carboxylate]: the activity at 5 µM was found to be 25.4% with Aβ1-40 and 57.1% with Aβ1-42.

For `CC1=C(C(=O)OC(C)C)C(c2ccc(Cl)cc2)C2=C(CC(C)(C)CC2=O)N1` (stereo not drawn) [ST017213, methylethyl 4-(4-chlorophenyl)-2,7,7-trimethyl-5-oxo-1,4,6,7,8-pentahydroquinoline-3-carboxylate], the activity at 5 µM in the assay with Aβ1-40 was 44.4%; in the assay on Aβ1-42, 91.4%.

For the molecule `COc1ccccc1C1C(C(=O)OC(C)C)=C(C)NC2=C1C(=O)CC(c1ccccc1)C2` (stereo not drawn) [ST017220, methylethyl 4-(2-methoxyphenyl)-2-methyl-5-oxo-7-phenyl-1,4,6,7,8-pentahydroquinoline-3-carboxylate], the activity at 5 µM is 60.9% in the assay on Aβ1-40 and 99.6% with Aβ1-42.

For the molecule `CCCOC(=O)C1=C(C)NC2=C(C(=O)CC(C)(C)C2)C1c1ccc(OC)cc1OC` (stereo not drawn) [ST017226, propyl 4-(2,4-dimethoxyphenyl)-2,7,7-trimethyl-5-oxo-1,4,6,7,8-pentahydroquinoline-3-carboxylate], the results for the activity at 5 µM in the assay with Aβ1-40 and in the assay with Aβ1-42 were 23.6% and 26.5%, respectively.

On to `CCOc1cc(C2C(C(=O)OCc3ccccc3)=C(C)NC3=C2C(=O)CC(c2ccccc2)C3)ccc1O` (stereo not drawn) [ST017228, phenylmethyl 4-(3-ethoxy-4-hydroxyphenyl)-2-methyl-5-oxo-7-phenyl-1,4,6,7,8-pentahydroquinoline-3-carboxylate], for which the activity at 5 µM in the assay on Aβ1-40 amounted to 95.6%; in the assay with Aβ1-42 it was 60.2%.

Regarding `COc1ccc(C2C(C(=O)OC(C)C)=C(C)NC3=C2C(=O)CC(c2ccccc2)C3)c(OC)c1` (stereo not drawn) [ST017229, methylethyl 4-(2,4-dimethoxyphenyl)-2-methyl-5-oxo-7-phenyl-1,4,6,7,8-pentahydroquinoline-3-carboxylate], the activity at 5 µM with Aβ1-40 stood at 63.1%; in the assay with Aβ1-42, 98.7%.
